How the values were obtained:
HS-Sch-2 = experiment: relative IC50 (inflection point of fitted dose-response curve, CellTiter-Glo viability, 72 h; top asymptote may be below 50% inhibition); higher = less potent
Procedure, shortened: (§1)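 MPNST cell lines and primary human Schwann cells (750–1000 cells per well) went into 384-well plates preprinted with each compound at five concentrations in 10-fold steps. Plates were incubated 72 h at 37 °C, 5% CO2. Viability was read as CellTiter-Glo ATP luminescence, scaled between vehicle and positive-control wells, with duplicates averaged where present. Percent inhibition is at the top concentration; drug sensitivity score and relative IC50 (censored at top concentration) come from four-parameter logistic fits.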

YST-1 = experiment: as above
Procedure, shortened: as §1

HS-PSS [1] = experiment: as above
Procedure, shortened: as §1

HS-PSS [2] = experiment: relative IC50 (inflection point of fitted dose-response curve, CellTox-Green cytotoxicity, 72 h; top asymptote may be below 50%); higher = less potent
Procedure, shortened: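 MPNST cell lines and primary human Schwann cells were incubated 72 h at 37 °C in 384-well plates holding five 10-fold compound dilutions. CellTox-Green was added before seeding at a final 1:1000 dilution and reported fluorescence from DNA released by disrupted cells. Signals were scaled to vehicle and positive-control wells, and cultures failing plate quality control were dropped. Drug sensitivity score and relative IC50 come from four-parameter logistic fits, with IC50 censored at the top concentration.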

Row | SMILES | relative IC50 (HS-Sch-2) [µM] | relative IC50 (YST-1) [µM] | relative IC50 (HS-PSS [1]) [µM] | relative IC50 (HS-PSS [2]) [µM]
1 | Nc1ncnc2c1c(-c1cccc(OCc3ccccc3)c1)cn2[C@H]1C[C@@H](CN2CCC2)C1 [NVP-AEW541] | 1.96 | 0.654 | 3.02 | 2.38
2 | CC(=O)N(O)CCCCCNC(=O)CCC(=O)N(O)CCCCCNC(=O)CCC(=O)N(O)CCCCCN [Deferoxamine] | 1.07 | 1.97 | 1.48 | 3.24
3 | CC[C@@]1(O)C(=O)OCc2c1cc1n(c2=O)Cc2cc3ccccc3nc2-1 [Camptothecin] | 0.0634 | 0.0401 | 0.199 | 0.358
4 | O=C(O)C(=O)O.[NH-][C@@H]1CCCC[C@H]1[NH-].[Pt+2] [Oxaliplatin] | 9.67 | 1.97 | 7.51 | 23.2
5 | CN(C)C1CCN(C(=O)c2ccc(NC(=O)Nc3ccc(-c4nc(N5CCOCC5)nc(N5CCOCC5)n4)cc3)cc2)CC1 [Gedatolisib] | 0.0472 | 0.0164 | 0.00908 | > 1
6 | CC(C)Nc1cc(-c2c[nH]c(C(=O)N[C@H](CO)c3cccc(Cl)c3)c2)c(Cl)cn1 [Ulixertinib] | 1.29 | 1.38 | 3.53 | > 10
7 | CN1CCN(c2cc(C(=O)Nc3ccc4c(c3)-c3c(c(C(N)=O)nn3-c3ccc(F)cc3)CC4)c(Cl)cn2)CC1 [PHA 408] | 3.28 | 3.08 | 2.4 | 3.27
8 | COc1cc(Br)c(Nc2nc(-c3c(C)nc4ncccn34)cs2)c(Br)c1 [PTC-209] | 1.41 | 2.58 | 1.67 | > 10
9 | O=C(NOCCO)c1ccc2cncn2c1Nc1ccc(I)cc1F [GDC-0623] | 0.368 | > 2.5 | 0.3 | > 2.5
10 | CC(C)[C@H](C(=O)Nc1ccc(C(=O)NO)cc1)c1ccccc1 [AR-42] | 1.15 | 0.27 | 1.06 | 1.92
11 | C[C@@H]1CN(CC(=O)Nc2ccc3c(c2)Cc2cccc(-c4cc(=O)cc(N5CCOCC5)o4)c2S3)C[C@H](C)O1 | 4.24 | 9.26 | 10.1 | > 25
12 | O=C(/C=C\n1cnc(-c2cc(C(F)(F)F)cc(C(F)(F)F)c2)n1)NNc1cnccn1 [Selinexor] | 0.211 | 0.115 | 0.404 | 1.46
13 | CC(C)N(C[C@H]1O[C@@H](n2cnc3c(N)ncnc32)[C@H](O)[C@@H]1O)[C@H]1C[C@@H](CCc2nc3cc(C(C)(C)C)ccc3[nH]2)C1 [Pinometostat] | > 1 | > 1 | > 1 | > 1
14 | O=C(O)c1ccc(CN2CCC(CN[C@@H]3C[C@H]3c3ccccc3)CC2)cc1 | > 10 | > 10 | > 10 | > 10
15 | CCN(CC)C(=S)SSC(=S)N(CC)CC [Disulfiram] | 0.6 | 0.303 | 0.291 | 6.65
16 | COc1cccc2c1C(=O)c1c(O)c3c(c(O)c1C2=O)C[C@@](O)(/C(CO)=N/NC(=O)CCCCCN1C(=O)C=CC1=O)C[C@@H]3O[C@H]1C[C@H](N)[C@H](O)[C@H](C)O1 [Aldoxorubicin] | 0.105 | 0.0515 | 0.158 | 0.181
17 | COc1cc(Nc2ncc(F)c(Nc3ccc4c(n3)N(COP(=O)(O)O)C(=O)C(C)(C)O4)n2)cc(OC)c1OC [Fostamatinib] | 0.416 | 0.685 | 0.514 | > 2.5
18 | C[C@@H]1C[C@H]2O[C@@H]2/C=C\C=C\C(=O)Cc2c(Cl)c(O)cc(O)c2C(=O)O1 [Radicicol] | 0.353 | 0.81 | 0.545 | 1.14
19 | S=C(NCc1ccc2c(c1)OCO2)N1CCN(c2ncnc3c2oc2ccccc23)CC1 [Amuvatinib] | 2.07 | 3.54 | 1.01 | > 10
20 | Cc1ccc(C(=O)Nc2ccc(Oc3cc4cnn(C)c4cc3-c3cn[nH]c3)c(F)c2)c(=O)n1-c1ccc(F)cc1 [Merestinib] | 0.371 | 0.15 | 0.245 | > 1

Row | SMILES | relative IC50 (HS-Sch-2) [µM] | relative IC50 (YST-1) [µM] | relative IC50 (HS-PSS [1]) [µM] | relative IC50 (HS-PSS [2]) [µM]
21 | Nc1cc(F)ccc1NC(=O)/C=C/c1cnn(C/C=C/c2ccccc2)c1 [RGFP966] | 1.75 | 1.57 | 0.378 | > 10
22 | CCn1c(-c2nonc2N)nc2c(C#CC(C)(C)O)ncc(OC[C@H]3CCCNC3)c21 | 1.62 | > 10 | > 10 | > 10
23 | Cc1cc(Nc2cc(N3CCN(C)CC3)nc(Sc3ccc(NC(=O)C4CC4)cc3)n2)n[nH]1 [Tozasertib] | 0.552 | 0.0421 | 0.315 | > 10
24 | CCNC(=O)Nc1ccc(-c2nc3c(c(N4CCOC[C@@H]4C)n2)CCN(C2COC2)C3)cc1 [RG-7603] | 0.356 | 0.192 | 0.777 | > 2.5
25 | NCCNc1ccc(NCCN)c2c1C(=O)c1ccncc1C2=O [Pixantrone] | 3.48 | 3.3 | 3 | > 10
26 | CN(CC(=O)N(Cc1ccc(C2CCCCC2)cc1)c1ccc(C(=O)O)cc1)S(=O)(=O)c1c(F)c(F)c(F)c(F)c1F [SH-4-54] | 5.27 | 3.26 | 7.51 | 7.28
27 | O=C(O)CSc1cc(NS(=O)(=O)c2ccc(Br)cc2)c2ccccc2c1O [UMI-77] | 5.66 | 3.04 | 26.9 | 30.5
28 | CNC(=O)c1ccc(C)c(-n2c(C)cc(OCc3ccc(F)cc3F)c(Br)c2=O)c1 | > 1 | 0.0446 | > 1 | > 1
29 | Cn1cc(-c2ccc3nnc(Sc4ccc5ncccc5c4)n3n2)cn1 [SGX-523] | > 5 | > 5 | > 5 | > 5
30 | CCn1cc(-c2ccnc3[nH]c(-c4cccc(CN(C)C)c4)cc23)c(-c2ccc(NC(=O)N(C)C)cc2)n1 | 0.157 | 0.00397 | 0.142 | > 1
31 | CCCCCCCCCCCCCCCCCCOP(=O)([O-])OC1CC[N+](C)(C)CC1 [Perifosine] | > 2.5 | > 2.5 | > 2.5 | > 2.5
32 | Cc1nc(N)sc1-c1ccnc(Nc2ccc(N3CCOCC3)cc2)n1 [CYC-116] | 1.58 | 0.51 | 1.39 | > 10
33 | CN(C)C(=O)c1cc2cnc(Nc3ccc(N4CCNCC4)cn3)nc2n1C1CCCC1 [Ribociclib] | 1.61 | 1.53 | 2.03 | > 10
34 | COc1cc2c(Nc3ccc(Cl)c(Cl)c3F)ncnc2cc1OC[C@H]1C[C@@H]2CN(C)C[C@@H]2C1 [XL-647] | 0.367 | 0.101 | 0.406 | > 1
35 | CCn1c(=O)c(-c2cc[nH]n2)cc2c(C)nc(N)nc21 [Voxtalisib] | 2.18 | 1.12 | 2.33 | > 10
36 | C[C@@H]1COC(Nc2ccc3ncnc(Nc4ccc(OCc5nccs5)c(Cl)c4)c3c2)=N1 [Varlitinib] | 1.64 | 0.247 | 0.821 | > 10
37 | N.N.[Cl][Pt][Cl] [Cisplatin] | 1.17 | 5.18 | 4.7 | 2.27
38 | FC(F)(F)c1ccc(/C=C/c2nc(COc3ccc(CCCCn4ccnn4)cc3)co2)cc1 [Mubritinib] | 0.0197 | 0.00605 | 0.0109 | > 1
39 | Cc1cc(C(=O)NOCCO)c(Nc2ccc(I)cc2F)n(C)c1=O [AZD-8330] | 0.174 | > 10 | 0.322 | > 10
40 | O=C(Nc1cccc(Nc2ncc(Br)c(NCCc3cnc[nH]3)n2)c1)N1CCCC1 [BX-912] | 2.75 | 0.867 | 1.93 | > 10

Row | SMILES | relative IC50 (HS-Sch-2) [µM] | relative IC50 (YST-1) [µM] | relative IC50 (HS-PSS [1]) [µM] | relative IC50 (HS-PSS [2]) [µM]
41 | C=CC(=O)Nc1cccc(Nc2nc(Nc3ccc(N4CCN(C(C)=O)CC4)cc3OC)ncc2C(F)(F)F)c1 [Rociletinib] | 2.82 | 1.61 | 3.1 | 2.98
42 | C[C@@H](Nc1cc(F)cc(F)c1)c1cc(C(=O)N(C)C)cc2c(=O)cc(N3CCOCC3)oc12 [AZD-8186] | > 1 | 0.357 | > 1 | > 1
43 | N[C@@H]1CCCN(c2c(/C=C3\SC(=O)NC3=O)cccc2-c2ccccc2)C1 [AZD1208] | > 10 | 0.204 | > 10 | > 10
44 | COc1ccc(CCc2nc3cc(-c4c(C)noc4C)ccc3n2C[C@H](C)N2CCOCC2)cc1Cl [SGC-CBP30] | 3.85 | 3.97 | 9.71 | > 25
45 | CN(C)Cc1c(C(=O)NCCOc2ccc(C(=O)NO)cc2)oc2ccccc12 [Abexinostat] | 0.197 | 0.0723 | 0.333 | 1.43
46 | COc1ccc(-c2ccc3ncc4c(c3c2)n(-c2ccc(N3CCNCC3)c(C(F)(F)F)c2)c(=O)n4C)cn1 [NVP-BGT226] | 0.0125 | 0.0179 | 0.0404 | 0.335
47 | CC(C)(O)CC(=O)NCCn1ccc2ncnc(Nc3ccc(Oc4cccc(C(F)(F)F)c4)c(Cl)c3)c21 [TAK-285] | > 2.5 | > 2.5 | > 2.5 | > 2.5
48 | COc1cc(C(=O)O)ccc1NC(=O)[C@@H]1N[C@@H](CC(C)(C)C)[C@](C#N)(c2ccc(Cl)cc2F)[C@H]1c1cccc(Cl)c1F [Idasanutlin] | > 10 | 0.062 | 0.178 | > 10
49 | CCCC(CCC)C(=O)O [Valproic acid] | > 1000 | 306 | > 1000 | > 1000
50 | CN(C[C@@H]1COCCO1)S(=O)(=O)Nc1ccc2ccc3ncc(-c4cnn(C)c4)cc3c(=O)c2c1 [MK-2461] | 3.48 | 1.68 | 4.1 | > 10
51 | COc1cc(N2CCN(C)CC2)ccc1Nc1nccc(-c2cn(C)c3cnccc23)n1 [AZ191] | 3.35 | 3.4 | 2.61 | 2.46
52 | N#Cc1ccc2[nH]c(O)c(-c3ccc(CN4CCOCC4)cn3)c2c1 [AZD-1080] | 3.63 | > 10 | 2.38 | > 10
53 | Cc1cnc(Nc2ccc(OCCN3CCCC3)cc2)nc1Nc1cccc(S(=O)(=O)NC(C)(C)C)c1 [Fedratinib] | 1.18 | 1.52 | 1.44 | 3.37
54 | CS(=O)(=O)N1CCc2c(-c3cnc(N)nc3)nc(N3CCOCC3)nc21 | 1.05 | 0.256 | 0.687 | > 10
55 | COC[C@H](NC(=O)c1cnc(C)s1)C(=O)N[C@@H](COC)C(=O)N[C@@H](Cc1ccccc1)C(=O)[C@@]1(C)CO1 [Oprozomib] | 0.0167 | 0.0721 | 0.148 | 0.486
56 | Cn1nccc1Nc1nccc(-c2ccn([C@H](CO)c3ccc(Cl)c(F)c3)c(=O)c2)n1 [GDC-0994] | 2.76 | 4.28 | > 10 | > 10
57 | C[C@@H](Oc1ccc2[nH]nc(/C=C/c3cnn(CCO)c3)c2c1)c1c(Cl)cncc1Cl | 0.118 | 0.114 | 0.187 | 0.245
58 | CCS(=O)(=O)N1CCN(c2ccc(Nc3ncc(C(N)=O)c(NC4CC4)n3)cc2)CC1 [Cerdulatinib] | 1.88 | > 10 | 1.27 | > 10
59 | NC(=S)N/N=C/c1ncccc1N [Triapine] | 1.69 | 3.88 | 2.25 | 3.26

Source: the supplement of paper PMC5579334
